Drawing on US20260217711A1, “TRIAZOLOPYRIDINYL ETHER LINKED COMPOUNDS AS KINASE INHIBITORS” (Bristol-Myers Squibb Company, priority 2023, published 2026), this text covers IC50 for 27 compounds.

The first assay has as its system MLKL phosphorylation (pMLKL) in HT29-L23 cells. Nature of the assay: MLKL Phosphorylation High-Content Assay. In kind it is cell-based. Particulars: Homo sapiens, 6 h, necroptosis induced with human TNFα, SMAC mimetic and Z-VAD, read-out: LE pMLKL HC IC50. Here is the method: Following 6 h incubation at 37° C. […] MLKL phosphorylation was detected using anti-MLKL (phospho […]) antibody (Abcam #ab187091) (1:1000 dilution in Blocking Buffer [PBS supplemented with 0.1% BSA]) with ON incubation at 4° C. […] Following another three cycles of washes in PBS, the microplates were sealed, and cellular images were acquired in the Cellomics ArrayScan VTI high-content imager equipped with an X1 camera. […] The image sets were analyzed using the Compartmental Analysis Bioapplication software (Cellomics). The level of MLKL phosphorylation was quantified as […].
Take `COc1ccc(OCCC(F)(F)C(C)(O)c2ccc(F)cc2)c(F)c1-c1ccn2nc(N)nc2c1` (racemic) [Example 22, 5-(3-(2-amino-[1,2,4]triazolo[1,5-a]pyridin-7-yl)-2-fluoro-4-methoxyphenoxy)-3,3-difluoro-2-(4-fluorophenyl)pentan-2-ol]: the IC50 amounted to 0.9 nM.

As to `Cc1ccc(-c2ccn3nc(N)nc3c2)c(F)c1OCCC(F)(F)C(O)c1ccc(F)cc1` (racemic) [Example 66, 4-(3-(2-amino-[1,2,4]triazolo[1,5-a]pyridin-7-yl)-2-fluoro-6-methylphenoxy)-2,2-difluoro-1-(4-fluorophenyl)butan-1-ol], the IC50 is 0.3 nM.

On to `Nc1nc2cc(-c3cccc(OCCC(F)(F)C(O)c4ccccc4)c3F)ccn2n1` (racemic) [Example 69, 4-(3-(2-amino-[1,2,4]triazolo[1,5-a]pyridin-7-yl)-2-fluorophenoxy)-2,2-difluoro-1-phenylbutan-1-ol], for which the IC50 is 3 nM.

Take `Nc1nc2cc(-c3cccc(OCCC(F)(F)C(O)c4ccc(Cl)cc4)c3F)ccn2n1` (racemic) [Example 70, 4-(3-(2-amino-[1,2,4]triazolo[1,5-a]pyridin-7-yl)-2-fluorophenoxy)-1-(4-chlorophenyl)-2,2-difluorobutan-1-ol]: the IC50 is 1 nM. Still for that read-out and setting: to `CC(O)(c1ccc(F)cc1)C(F)(F)CCOc1cccc(-c2ccn3nc(N)nc3c2)c1F` (racemic) [Example 73, 5-(3-(2-amino-[1,2,4]triazolo[1,5-a]pyridin-7-yl)-2-fluorophenoxy)-3,3-difluoro-2-(4-fluorophenyl)pentan-2-ol] belongs 0.5 nM; to `CC(O)(c1ccc(F)cc1)C(F)(F)CCOc1cnc(Cl)c(-c2ccn3nc(N)nc3c2)n1` (racemic) [Example 81, 5-((6-(2-amino-[1,2,4]triazolo[1,5-a]pyridin-7-yl)-5-chloropyrazin-2-yl)oxy)-3,3-difluoro-2-(4-fluorophenyl)pentan-2-ol], 0.2 nM.

Turning to `CC(C)CC(O)C(F)(F)CCOc1cccc(-c2ccn3nc(N)nc3c2)c1F` (single isomer, unassigned) [Example 6, 1-(3-(2-amino-[1,2,4]triazolo[1,5-a]pyridin-7-yl)-2-fluorophenoxy)-3,3-difluoro-6-methylheptan-4-ol], the IC50 turned out to be 80 nM. Same read-out and setting: the figure for `CC(O)(c1ccc(F)cc1)C(F)(F)CCOc1cccc(-c2ccn3nc(N)nc3c2)c1C(F)F` (single isomer, unassigned) [Example 23, 5-(3-(2-amino-[1,2,4]triazolo[1,5-a]pyridin-7-yl)-2-(difluoromethyl)phenoxy)-3,3-difluoro-2-(4-fluorophenyl)pentan-2-ol] is 6000 nM.

Staying with this assay, now noted: necroptosis induced with human TNFα, SMAC mimetic and Z-VAD, 6 h, read-out: LE pMLKL HC IC50.
As for `CC(O)(c1ccc(F)cc1)C(F)(F)CCOc1c(Cl)ccc(-c2ccn3nc(N)nc3c2)c1F` (single isomer, unassigned) [Example 5, 5-(3-(2-amino-[1,2,4]triazolo[1,5-a]pyridin-7-yl)-6-chloro-2-fluorophenoxy)-3,3-difluoro-2-(4-fluorophenyl)pentan-2-ol], the IC50 worked out at 150 nM.

As to `CC(C)CC(O)C(F)(F)CCOc1cccc(-c2ccn3nc(N)nc3c2)c1F` (single isomer, unassigned) [Example 7, 1-(3-(2-amino-[1,2,4]triazolo[1,5-a]pyridin-7-yl)-2-fluorophenoxy)-3,3-difluoro-6-methylheptan-4-ol], the IC50 worked out at 160 nM. Take `CC(O)(c1ccc(F)cc1)C(F)(F)CCOc1ccc(F)c(-c2ccn3nc(N)nc3c2)c1F` (single isomer, unassigned) [Example 8, 5-(3-(2-amino-[1,2,4]triazolo[1,5-a]pyridin-7-yl)-2,4-difluorophenoxy)-3,3-difluoro-2-(4-fluorophenyl)pentan-2-ol]: the IC50 worked out at 9 nM. On the same count and under the same terms, the figure for `CC(O)(c1ccc(F)cc1)C(F)(F)CCOc1ccc(F)c(-c2ccn3nc(N)nc3c2)c1F` (single isomer, unassigned) [Example 9, 5-(3-(2-amino-[1,2,4]triazolo[1,5-a]pyridin-7-yl)-2,4-difluorophenoxy)-3,3-difluoro-2-(4-fluorophenyl)pentan-2-ol] is 0.1 nM; for `CC(O)(c1ccc(F)cc1)C(F)(F)CCOc1cc(F)cc(-c2ccn3nc(N)nc3c2)c1F` (single isomer, unassigned) [Example 10, 5-(3-(2-amino-[1,2,4]triazolo[1,5-a]pyridin-7-yl)-2,5-difluorophenoxy)-3,3-difluoro-2-(4-fluorophenyl)pentan-2-ol] it is 1 nM.

For the compound `CC(O)(c1ccc(F)cc1)C(F)(F)CCOc1cc(F)cc(-c2ccn3nc(N)nc3c2)c1F` (single isomer, unassigned) [Example 11, 5-(3-(2-amino-[1,2,4]triazolo[1,5-a]pyridin-7-yl)-2,5-difluorophenoxy)-3,3-difluoro-2-(4-fluorophenyl)pentan-2-ol], the IC50 turned out to be 0.2 nM. Take `[2H]C([2H])(CC(F)(F)C(C)(O)c1ccc(F)cc1)Oc1cccc(-c2ccn3nc(N)nc3c2)c1F` (single isomer, unassigned) [Example 12, 5-(3-(2-amino-[1,2,4]triazolo[1,5-a]pyridin-7-yl)-2-fluorophenoxy)-3,3-difluoro-2-(4-fluorophenyl)pentan-5,5-d2-2-ol]: the IC50 came out at 1 nM.

For `[2H]C([2H])(CC(F)(F)C(C)(O)c1ccc(F)cc1)Oc1c(F)ccc(-c2ccn3nc(N)nc3c2)c1F` (single isomer, unassigned) [Example 14, 5-(3-(2-amino-[1,2,4]triazolo[1,5-a]pyridin-7-yl)-2,6-difluorophenoxy)-3,3-difluoro-2-(4-fluorophenyl)pentan-5,5-d2-2-ol], the IC50 was determined as 30 nM.

For the compound `CC(N)(c1ccc(F)cc1)C(F)(F)CCOc1c(F)ccc(-c2ccn3nc(N)nc3c2)c1F` (single isomer, unassigned) [Example 16, 7-(3-((4-amino-3,3-difluoro-4-(4-fluorophenyl)pentyl)oxy)-2,4-difluorophenyl)-[1,2,4]triazolo[1,5-a]pyridin-2-amine], the IC50 was 20 nM. For the compound `CC(N)(c1ccc(F)cc1)C(F)(F)CCOc1c(F)ccc(-c2ccn3nc(N)nc3c2)c1F` (single isomer, unassigned) [Example 17, 7-(3-((4-amino-3,3-difluoro-4-(4-fluorophenyl)pentyl)oxy)-2,4-difluorophenyl)-[1,2,4]triazolo[1,5-a]pyridin-2-amine], the IC50 came to 60 nM. `COc1ccc(-c2ccn3nc(N)nc3c2)c(F)c1OCCC(F)(F)C(C)(O)c1ccc(F)cc1` (single isomer, unassigned) [Example 18, 5-(3-(2-amino-[1,2,4]triazolo[1,5-a]pyridin-7-yl)-2-fluoro-6-methoxyphenoxy)-3,3-difluoro-2-(4-fluorophenyl)pentan-2-ol]: the IC50 was determined as 80 nM. Still for that read-out and setting: the figure for `COc1ccc(-c2ccn3nc(N)nc3c2)c(F)c1OCCC(F)(F)C(C)(O)c1ccc(F)cc1` (single isomer, unassigned) [Example 19, 5-(3-(2-amino-[1,2,4]triazolo[1,5-a]pyridin-7-yl)-2-fluoro-6-methoxyphenoxy)-3,3-difluoro-2-(4-fluorophenyl)pentan-2-ol] is 0.4 nM; for `COc1cc(F)c(OCCC(F)(F)C(C)(O)c2ccc(F)cc2)c(F)c1-c1ccn2nc(N)nc2c1` (single isomer, unassigned) [Example 20, 5-(3-(2-amino-[1,2,4]triazolo[1,5-a]pyridin-7-yl)-2,6-difluoro-4-methoxyphenoxy)-3,3-difluoro-2-(4-fluorophenyl)pentan-2-ol] it is 110 nM. As to `COc1cc(F)c(OCCC(F)(F)C(C)(O)c2ccc(F)cc2)c(F)c1-c1ccn2nc(N)nc2c1` (single isomer, unassigned) [Example 21, 5-(3-(2-amino-[1,2,4]triazolo[1,5-a]pyridin-7-yl)-2,6-difluoro-4-methoxyphenoxy)-3,3-difluoro-2-(4-fluorophenyl)pentan-2-ol], the IC50 was found to be 1.1 nM. Regarding `CC(O)(c1ccc(F)cc1)C(F)(F)CCOc1cccc(-c2ccn3nc(N)nc3c2)c1C(F)F` (single isomer, unassigned) [Example 24, 5-(3-(2-amino-[1,2,4]triazolo[1,5-a]pyridin-7-yl)-2-(difluoromethyl)phenoxy)-3,3-difluoro-2-(4-fluorophenyl)pentan-2-ol], the IC50 came out at 6000 nM. On the same count and under the same terms, to `CC(O)(c1ccc(F)cc1)C(F)(F)CCOc1c(C(F)F)ccc(-c2ccn3nc(N)nc3c2)c1F` (single isomer, unassigned) [Example 25, 5-(3-(2-amino-[1,2,4]triazolo[1,5-a]pyridin-7-yl)-6-(difluoromethyl)-2-fluorophenoxy)-3,3-difluoro-2-(4-fluorophenyl)pentan-2-ol] belongs 1.5 nM; to `CC(O)(c1ccc(F)cc1)C(F)(F)CCOc1c(C(F)F)ccc(-c2ccn3nc(N)nc3c2)c1F` (single isomer, unassigned) [Example 26, 5-(3-(2-amino-[1,2,4]triazolo[1,5-a]pyridin-7-yl)-6-(difluoromethyl)-2-fluorophenoxy)-3,3-difluoro-2-(4-fluorophenyl)pentan-2-ol], 0.3 nM. For the compound `CC(O)(c1ccc(F)cn1)C(F)(F)CCOc1c(Cl)ccc(-c2ccn3nc(N)nc3c2)c1F` (single isomer, unassigned) [Example 32, 5-(3-(2-amino-[1,2,4]triazolo[1,5-a]pyridin-7-yl)-6-chloro-2-fluorophenoxy)-3,3-difluoro-2-(5-fluoropyridin-2-yl)pentan-2-ol], the IC50 worked out at 30 nM.

With `Nc1nc2cc(-c3ccc(F)c(OCCC(F)(F)C(O)c4ccc(F)cn4)c3F)ccn2n1` (single isomer, unassigned) [Example 33, 4-(3-(2-amino-[1,2,4]triazolo[1,5-a]pyridin-7-yl)-2,6-difluorophenoxy)-2,2-difluoro-1-(5-fluoropyridin-2-yl)butan-1-ol], the IC50 was found to be 85 nM.

As a reminder, the IC50 is the concentration that gives 50% inhibition.
